The structures appear in SMILES notation.

In one test the target is NAMPT (Homo sapiens, UniProt P43490). The experiment in a line: Time-Resolved Fluorescence Resonance Energy Transfer (TR-FRET) Binding Assay of NAMPT with PRPP. As to conditions: 200 μM PRPP and 2.5 mM ATP; 2 nM NAMPT, 2 nM probe, equilibrated 16 hours. The method, boiled down: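 Compounds were equilibrated for 16 hours before TR-FRET readout, with substrates present (200 μM PRPP, 2.5 mM ATP) to permit enzymatic modification. Final mix: 2 nM His-tagged NAMPT, 2 nM probe, 1 nM Tb-anti-His antibody, 2% DMSO.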

The target in test [1] is NAMPT (human, recombinant, C-terminally His-tagged) (Homo sapiens, UniProt P43490). The experiment in a line: Time-Resolved Fluorescence Resonance Energy Transfer (TR-FRET) Binding Assay of NAMPT. Particulars: absence of substrates; 6.8 nM NAMPT, 200 nM probe, equilibrated 3 hours. The method, boiled down:
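Compounds (typically 11 half-log dilutions, 2% DMSO final) equilibrated 3 h at room temperature with 6.8 nM human C-His NAMPT, 1 nM Tb-anti-His antibody and 200 nM fluorescent competitive probe in pH 7.5 HEPES buffer. IC50 derived by logistic fit of normalized TR-FRET ratio (520/495 nm).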

The test system of test [2] is experimental autoimmune encephalomyelitis (EAE). Particulars: a model of T-cell mediated autoimmune disorders; cited from earlier work.
The subject of test [3] is collagen-induced arthritis. As to conditions: cited from earlier work.
The test system of a further test is activated T cells. As to conditions: cited from earlier work.

NAMPT, sequence (P43490 whole entry): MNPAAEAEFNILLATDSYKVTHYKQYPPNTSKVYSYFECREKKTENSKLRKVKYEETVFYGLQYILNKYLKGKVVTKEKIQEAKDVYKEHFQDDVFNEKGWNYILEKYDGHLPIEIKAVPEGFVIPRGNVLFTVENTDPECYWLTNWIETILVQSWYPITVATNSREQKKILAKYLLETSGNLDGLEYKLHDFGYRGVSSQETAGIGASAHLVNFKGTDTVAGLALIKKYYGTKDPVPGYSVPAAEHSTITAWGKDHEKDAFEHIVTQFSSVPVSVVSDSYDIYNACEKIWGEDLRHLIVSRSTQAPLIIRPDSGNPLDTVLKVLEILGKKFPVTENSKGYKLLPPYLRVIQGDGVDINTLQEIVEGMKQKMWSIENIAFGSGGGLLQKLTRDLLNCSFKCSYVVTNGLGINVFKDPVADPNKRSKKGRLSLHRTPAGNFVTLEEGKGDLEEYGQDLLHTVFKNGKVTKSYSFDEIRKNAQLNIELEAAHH
NAMPT (human, recombinant, C-terminally His-tagged), sequence (P43490 whole entry): as above

For `COCCC(=O)N(CCc1ccc(Cl)cn1)c1ncc(C(=O)NCCCn2ccnc2)s1` [Example 207, 2-{[2-(5-chloropyridin-2-yl)ethyl](3-methoxypropanoyl)amino}-N-[3-(1H-imidazol-1-yl)propyl]-1,3-thiazole-5-carboxamide], the IC50 (commonly the midpoint of a concentration-inhibition curve) at NAMPT is 0.000331 µM; in test [1], 3.86 µM.
As for `O=C(NCCCn1ccnc1)c1cnc(N(CCc2ccc(Cl)cn2)C(=O)C2CCOC2)s1` (stereo not shown) [Example 208, 2-{[2-(5-chloropyridin-2-yl)ethyl](tetrahydrofuran-3-ylcarbonyl)amino}-N-[3-(1H-imidazol-1-yl)propyl]-1,3-thiazole-5-carboxamide], the figures for the IC50 (on NAMPT; in test [1]) were 0.00025 µM and 2.89 µM, respectively.
As for `COCCNC(=O)N(CCc1ccc(Cl)cn1)c1ncc(C(=O)NCCCn2ccnc2)s1` [Example 209, 2-{[2-(5-chloropyridin-2-yl)ethyl][(2-methoxyethyl)carbamoyl]amino}-N-[3-(1H-imidazol-1-yl)propyl]-1,3-thiazole-5-carboxamide], the IC50 stood at 0.000245 µM at NAMPT and 6.7 µM in test [1].
For `CC(C)OCCNC(=O)N(CCc1ccc(Cl)cn1)c1ncc(C(=O)NCCCn2ccnc2)s1` [Example 210, 2-([2-(5-chloropyridin-2-yl)ethyl]{[2-(propan-2-yloxy)ethyl]carbamoyl}amino)-N-[3-(1H-imidazol-1-yl)propyl]-1,3-thiazole-5-carboxamide], in that order: 0.000192 µM and 2.74 µM.
In the same order, the values of `O=C(NCCCn1ccnc1)c1cnc(N2C[C@H](CN3C(=O)c4ccccc4C3=O)OC2=O)s1` [Example 212, 2-{(5S)-5-[(1,3-dioxo-1,3-dihydro-2H-isoindol-2-yl)methyl]-2-oxo-1,3-oxazolidin-3-yl}-N-[3-(1H-imidazol-1-yl)propyl]-1,3-thiazole-5-carboxamide] are 0.00103 µM and 5.71 µM.
In the same order, the values of `COCCN(C(=O)Cc1ccccn1)c1ncc(C(=O)NCCCn2ccnc2)s1` [Example 213, N-[3-(1H-imidazol-1-yl)propyl]-2-[(2-methoxyethyl)(pyridin-2-ylacetyl)amino]-1,3-thiazole-5-carboxamide] are 0.000411 µM and 9.86 µM.
Turning to `O=C(/C=C/c1cccnc1)NCCCCC1CCN(C(=O)c2ccccc2)CC1` [FK866], the “manifestations of experimental autoimmune encephalomyelitis” value in test [2] is on record as “ameliorated the manifestations”. The “efficacy in animal models of arthritis” value in test [3] is listed as “efficacious”. Moreover, in the test with activated T cells, the “apoptosis of activated T cells” value is “induce apoptosis” and the “proliferation of activated T cells” value was “selectively block proliferation”.

Source of the values: patent US9334264B2, “NAMPT inhibitors” (AbbVie Inc., priority 2012, dated 2016).
